Measurements from PubChem BioAssay AID256 (DTP/NCI, 2004).
Toxic doses and inconclusive results are not listed.

Tested on: CD2F1 mice, L1210 leukemia ip, survival T/C
Assay: NCI In Vivo Anticancer Drug Screen. Data for tumor model L1210 Leukemia (intraperitoneal) in CD2F1 (CDF1) mice
Conditions: endpoint: mean survival time, higher = longer survival
Summary of the method: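 Each value reflects a quotient of treated over vehicle control outcomes in mice with a transplanted tumor.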

`CCC(=O)OC1(c2ccccc2)CCN(C/C=C/c2ccc(F)cc2)CC1` was tested. Which T/C (dose: 6.25 mg/kg/injection, schedule: Q01DX009 (ip), vehicle: saline with Tween-80) did it give?
The T/C was 98 % of control.

What about the T/C (dose: 12.5 mg/kg/injection, schedule: Q01DX009 (ip), vehicle: saline with Tween-80) of the same compound?
Its T/C is 98 % of control.

And the T/C (dose: 25.0 mg/kg/injection, schedule: Q01DX009 (ip), vehicle: saline with Tween-80)?
The T/C was 110 % of control.

With `COCC1C2CCC(C2)C1COC` (centres undefined) as the compound, how does the T/C (dose: 100.0 mg/kg/injection, schedule: Q01DX001 (ip), vehicle: saline with Tween-80) read?
Its T/C is 104 % of control.

And the T/C (dose: 200.0 mg/kg/injection, schedule: Q01DX001 (ip), vehicle: saline with Tween-80)?
Its T/C is 92 % of control.

What about the T/C (dose: 400.0 mg/kg/injection, schedule: Q01DX001 (ip), vehicle: saline with Tween-80) of the same compound?
Its T/C is 97 % of control.

With `O=C(C[n+]1cc2ccccc2c2ccccc21)c1ccccc1` as the compound, how does the T/C (dose: 100.0 mg/kg/injection, schedule: Q04DX003 (ip), vehicle: saline) read?
The T/C was 95 % of control.

What about the T/C (dose: 200.0 mg/kg/injection, schedule: Q04DX003 (ip), vehicle: saline) of the same compound?
The T/C was 86 % of control.

What does the source list for `CCOC(=O)NCCCNC(=O)OCC`?
T/C (dose: 100.0 mg/kg/injection, schedule: Q01DX009 (ip), vehicle: saline): 104 % of control; T/C (dose: 200.0 mg/kg/injection, schedule: Q01DX009 (ip), vehicle: saline): 95 % of control; T/C (dose: 400.0 mg/kg/injection, schedule: Q01DX009 (ip), vehicle: saline): 93 % of control

Which results are given for `CC1=NOC(=O)C1C(C)(C)C1C(=O)ON=C1C` (centres undefined)?
T/C (dose: 100.0 mg/kg/injection, schedule: Q01DX009 (ip), vehicle: saline with Tween-80): 107 % of control; T/C (dose: 200.0 mg/kg/injection, schedule: Q01DX009 (ip), vehicle: saline with Tween-80): 104 % of control; T/C (dose: 400.0 mg/kg/injection, schedule: Q01DX009 (ip), vehicle: saline with Tween-80): 104 % of control
